Patent US8299022B2, “Analogs of ghrelin substituted at the N-terminal” (IPSEN Pharma S.A.S., priority 2006, dated 2012)
Read-outs that look alike come from different tables or passages of the source. Square brackets hold non-standard residues; d marks the D form. Peptide text beside a SMILES is read from it. * marks the point of attachment. Octanoyl = CCCCCCCC(=O)*; Aib = CC(C)(N)C(=O)O; Inp = O=C(O)C1CCNCC1

What was measured:
[1] = Rat plasma ½ life (stability in plasma in a rat model); assay type: in vitro ADME
Description: A selection of the preferred embodiments listed above was analyzed to determine stability, i.e. ½ life in plasma in a rat model using techniques known to those skilled in the art.

[2] = target: T1, human GSH receptor (Homo sapiens, UniProt Q92847); assay: In vitro GSH receptor mediated intracellular iCa2+ mobilization (Fura-2AM, CHO-K1 cells); assay type: cell-based; conditions: CHO-K1 cells expressing the human receptor, 37° C.
T1 construct: The full length human GHS-R was subcloned into the mammalian expression vector pcDNA 3.1; expressed in transfected cells
Description: 2A. In vitro GSH Receptor Mediated Intracellular iCa^2+Mobilization
The foregoing CHO-K1 cells expressing the human GSH receptor were harvested by incubating in a 0.3% EDTA/phosphate buffered saline solution at 25° C.; the cells were then washed 2 times by centrifugation. The washed cells were resuspended in Hank's buffered saline solution (HBSS) for loading of the fluorescent Ca^2+ indicator Fura-2AM. Cell suspensions of approximately 10^6 cells/ml were incubated with 2 μM Fura-2AM for about 30 minutes at about 25° C. Unloaded Fura-2AM was removed by centrifugation twice in HBSS and the final suspensions were transferred to a spectrofluorometer (model Hitachi F-2000® Tokyo, Japan) equipped with a magnetic stirring mechanism and a temperature-regulated cuvette holder. After equilibration to 37° C., the ghrelin analogs were added for measurement of intracellular Ca^2+ mobilization. The excitation and emission wavelengths were 340 and 510 nm, respectively. An increase in the amount of Ca^2+ measured was indicative of agonist activity of a tested peptide while a decrease in the amount (or lack of) Ca^2+ measure was indicative of antagonist activity of a tested peptide.

[3] = rat, in vivo; cited from earlier work
[4] = human, in vivo; cited from earlier work

T1 sequence (Q92847 whole entry): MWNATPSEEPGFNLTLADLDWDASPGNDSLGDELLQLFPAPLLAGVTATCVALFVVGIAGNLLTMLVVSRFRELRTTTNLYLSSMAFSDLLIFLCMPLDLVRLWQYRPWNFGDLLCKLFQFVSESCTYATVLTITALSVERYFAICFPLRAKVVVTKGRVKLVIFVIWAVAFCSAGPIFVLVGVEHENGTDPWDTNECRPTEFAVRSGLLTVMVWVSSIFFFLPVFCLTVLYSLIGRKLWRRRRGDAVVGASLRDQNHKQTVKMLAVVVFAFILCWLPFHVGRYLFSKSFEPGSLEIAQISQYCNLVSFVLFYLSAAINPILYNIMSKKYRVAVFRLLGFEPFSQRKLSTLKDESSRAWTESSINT

Molecule | Rat Plasma ½ life [1] | other results
CCCCCCNC(=O)CC[C@H](NC(=O)C(C)(C)NC(=O)C1CCN(C(C)=O)CC1)C(=O)N[C@@H](Cc1ccccc1)C(=O)N[C@@H](CC(C)C)C(=O)N[C@@H](CO)C(=O)N1CCC[C@H]1C(=O)N[C@@H](CCC(=O)O)C(=O)N[C@@H](Cc1c[nH]cn1)C(=O)NC(C)(C)C(=O)N[C@@H](CCCNC(=N)N)C(=O)N[C@H](C(=O)N[C@@H](CCC(N)=O)C(=O)N[C@@H](CCC(N)=O)C(=O)N[C@@H](CCCNC(=N)N)C(=O)N[C@@H](CCCCN)C(=O)N[C@@H](CCC(=O)O)C(=O)N[C@@H](CO)C(=O)N[C@@H](CCCCN)C(=O)N[C@@H](CCCCN)C(=O)N1CCC[C@H]1C(=O)N1CCC[C@H]1C(=O)N[C@@H](C)C(=O)N[C@@H](CCCCN)C(=O)N[C@@H](CC(C)C)C(=O)N[C@@H](CCC(N)=O)C(=O)N1CCC[C@H]1C(=O)N[C@@H](CCCNC(=N)N)C(N)=O)C(C)C [Example 1, (Ac-Inp^1, Aib^2, 10, Glu(NH-hexyl)^3)hGhrelin(1-28)-NH2] | 9.4 h | agonist/antagonist activity at the ghrelin receptor (intracellular Ca2+ mobilization) [2]: antagonistic activity
CCCCCCNC(=O)CC[C@H](NC(=O)C(C)(C)NC(=O)C1CCNCC1)C(=O)N[C@@H](Cc1ccccc1)C(=O)N[C@@H](CC(C)C)C(=O)N[C@@H](CO)C(=O)N1CCC[C@H]1C(=O)N[C@@H](CCC(=O)O)C(=O)N[C@@H](Cc1c[nH]cn1)C(=O)NC(C)(C)C(=O)N[C@@H](CCCNC(=N)N)C(=O)N[C@H](C(=O)N[C@@H](CCC(N)=O)C(=O)N[C@@H](CCC(N)=O)C(=O)N[C@@H](CCCNC(=N)N)C(=O)N[C@@H](CCCCN)C(=O)N[C@@H](CCC(=O)O)C(=O)N[C@@H](CO)C(=O)N[C@@H](CCCCN)C(=O)N[C@@H](CCCCN)C(=O)N1CCC[C@H]1C(=O)N1CCC[C@H]1C(=O)N[C@@H](C)C(=O)N[C@@H](CCCCN)C(=O)N[C@@H](CC(C)C)C(=O)N[C@@H](CCC(N)=O)C(=O)N1CCC[C@H]1C(=O)N[C@@H](CCCNC(=N)N)C(N)=O)C(C)C [Example 3, (Inp^1, Aib^2, 10, Glu(NH-hexyl)^3)hGhrelin(1-28)-NH2] | 10.6 h | agonist/antagonist activity at the ghrelin receptor (intracellular Ca2+ mobilization) [2]: antagonistic activity
CCCCCCCC(=O)OC[C@H](NC(=O)C(C)(C)NC(=O)C1CCNCC1)C(=O)N[C@@H](Cc1ccccc1)C(=O)N[C@@H](CC(C)C)C(=O)N[C@@H](CO)C(=O)N1CCC[C@H]1C(=O)N[C@@H](CCC(=O)O)C(=O)N[C@@H](Cc1c[nH]cn1)C(=O)NC(C)(C)C(=O)N[C@@H](CCCNC(=N)N)C(=O)N[C@H](C(=O)N[C@@H](CCC(N)=O)C(=O)N[C@@H](CCC(N)=O)C(=O)N[C@@H](CCCNC(=N)N)C(=O)N[C@@H](CCCCN)C(=O)N[C@@H](CCC(=O)O)C(=O)N[C@@H](CO)C(=O)N[C@@H](CCCCN)C(=O)N[C@@H](CCCCN)C(=O)N1CCC[C@H]1C(=O)N1CCC[C@H]1C(=O)N[C@@H](C)C(=O)N[C@@H](CCCCN)C(=O)N[C@@H](CC(C)C)C(=O)N[C@@H](CCC(N)=O)C(=O)N1CCC[C@H]1C(=O)N[C@@H](CCCNC(=N)N)C(N)=O)C(C)C [Example 8, (Inp^1, Aib^2, 10)hGhrelin(1-28)-NH2] | 1.2 h | 
CCCCCCCC(=O)OC[C@H](NC(=O)C(C)(C)NC(=O)C1CCNCC1)C(=O)N[C@@H](Cc1ccccc1)C(=O)N[C@@H](CC(C)C)C(=O)N[C@@H](CO)C(=O)N1CCC[C@H]1C(=O)NC(C)(C)C(=O)N[C@@H](Cc1c[nH]cn1)C(=O)N[C@@H](CCC(N)=O)C(=O)N[C@@H](CCCNC(=N)N)C(=O)N[C@H](C(=O)N[C@@H](CCC(N)=O)C(=O)N[C@@H](CCC(N)=O)C(=O)N[C@@H](CCCNC(=N)N)C(=O)N[C@@H](CCCCN)C(=O)N[C@@H](CCC(=O)O)C(=O)N[C@@H](CO)C(=O)N[C@@H](CCCCN)C(=O)N[C@@H](CCCCN)C(=O)N1CCC[C@H]1C(=O)N1CCC[C@H]1C(=O)N[C@@H](C)C(=O)N[C@@H](CCCCN)C(=O)N[C@@H](CC(C)C)C(=O)N[C@@H](CCC(N)=O)C(=O)N1CCC[C@H]1C(=O)N[C@@H](CCCNC(=N)N)C(N)=O)C(C)C [Example 9, (Inp^1, Aib^2, 8)hGhrelin(1-28)-NH2] | 1.2 h | 
CCCCCCCC(=O)OC[C@H](NC(=O)[C@H](CCCCN)NC(=O)[C@H](CCCNC(=N)N)NC(=O)[C@H](CCC(N)=O)NC(=O)[C@H](CCC(N)=O)NC(=O)[C@@H](NC(=O)[C@H](CCCNC(=N)N)NC(=O)[C@H](CCC(N)=O)NC(=O)[C@H](Cc1c[nH]cn1)NC(=O)[C@H](CCC(=O)O)NC(=O)[C@@H]1CCCN1C(=O)[C@H](CO)NC(=O)[C@H](CC(C)C)NC(=O)[C@H](Cc1ccccc1)NC(=O)[C@H](COC(=O)CCCCCCC)NC(=O)C(C)(C)NC(=O)C1CCNCC1)C(C)C)C(=O)N[C@@H](CO)C(=O)N[C@@H](CCCCN)C(=O)N[C@@H](CCCCN)C(=O)N1CCC[C@H]1C(=O)N1CCC[C@H]1C(=O)N[C@@H](C)C(=O)N[C@@H](CCCCN)C(=O)N[C@@H](CC(C)C)C(=O)N[C@@H](CCC(N)=O)C(=O)N1CCC[C@H]1C(=O)N[C@@H](CCCNC(=N)N)C(N)=O [Example 10, (Inp^1, Aib^2, Ser(n-octanoyl)^17)hGhrelin(1-28)-NH2] | 0.6 h | 
CCCCCCCC(=O)OC[C@H](NC(=O)[C@H](CO)NC(=O)C1CCNCC1)C(=O)N[C@@H](Cc1ccccc1)C(=O)N[C@@H](CC(C)C)C(=O)N[C@@H](CO)C(=O)N1CCC[C@H]1C(=O)N[C@@H](CCC(=O)O)C(=O)N[C@@H](Cc1c[nH]cn1)C(=O)N[C@@H](CCC(N)=O)C(=O)N[C@@H](CCCNC(=N)N)C(=O)N[C@H](C(=O)N[C@@H](CCC(N)=O)C(=O)N[C@@H](CCC(N)=O)C(=O)N[C@@H](CCCNC(=N)N)C(=O)N[C@@H](CCCCN)C(=O)N[C@@H](COC(=O)CCCCCCC)C(=O)N[C@@H](CO)C(=O)N[C@@H](CCCCN)C(=O)N[C@@H](CCCCN)C(=O)N1CCC[C@H]1C(=O)N1CCC[C@H]1C(=O)N[C@@H](C)C(=O)N[C@@H](CCCCN)C(=O)N[C@@H](CC(C)C)C(=O)N[C@@H](CCC(N)=O)C(=O)N1CCC[C@H]1C(=O)N[C@@H](CCCNC(=N)N)C(N)=O)C(C)C [Example 11, (Inp^1, Ser(n-octanoyl)^17)hGhrelin(1-28)-NH2] | 0.7 h | 
CCCCCCCC(=O)OC[C@H](NC(=O)[C@H](CCCCN)NC(=O)[C@H](CCCNC(=N)N)NC(=O)[C@H](CCC(N)=O)NC(=O)[C@H](CCC(N)=O)NC(=O)[C@@H](NC(=O)[C@H](CCCNC(=N)N)NC(=O)[C@H](CCC(N)=O)NC(=O)[C@H](Cc1c[nH]cn1)NC(=O)C(C)(C)NC(=O)[C@@H]1CCCN1C(=O)[C@H](CO)NC(=O)[C@H](CC(C)C)NC(=O)[C@H](Cc1ccccc1)NC(=O)[C@H](COC(=O)CCCCCCC)NC(=O)C(C)(C)NC(=O)C1CCNCC1)C(C)C)C(=O)N[C@@H](CO)C(=O)N[C@@H](CCCCN)C(=O)N[C@@H](CCCCN)C(=O)N1CCC[C@H]1C(=O)N1CCC[C@H]1C(=O)N[C@@H](C)C(=O)N[C@@H](CCCCN)C(=O)N[C@@H](CC(C)C)C(=O)N[C@@H](CCC(N)=O)C(=O)N1CCC[C@H]1C(=O)N[C@@H](CCCNC(=N)N)C(N)=O [Example 12, (Inp^1, Aib^2,8, Ser(n-octanoyl)^17)hGhrelin(1-28)-NH2] (H-[Inp][Aib]S(Octanoyl)FLSP[Aib]HQRVQQRKS(Octanoyl)SKKPPAKLQPR-NH2; N-terminus assumed) | 0.7 h | 
H-Gly-Ser-Ser-Phe-Leu-Ser-Pro-Glu-His-Gln-Arg-Val-Gln-Gln-Arg-Lys-Glu-Ser-Lys-Lys-Pro-Pro-Ala-Lys-Leu-Gln-Pro-Arg-NH2 (H-GSS(Octanoyl)FLSPEHQRVQQRKESKKPPAKLQPR-NH2; listed as Homo sapiens) [ghrelin] |  | apparent half-life of exogenous ghrelin [3]: 30 min; apparent half-life of exogenous ghrelin [4]: 10 min
